Laboratory results as given in patent US10266495B2, “Phenyl quinolinone derivatives as mutant-isocitrate dehydrogenase inhibitors” (FORMA TM2, Inc., priority 2014, dated 2019).

Experiments:
[1] = target: IDH1-R132C recombinant protein (Homo sapiens, UniProt O75874, R132C); assay: IDH1-R132C enzymatic assay (NADPH consumption, diaphorase/resazurin readout); format: biochemical; conditions: read-out: Enzyme IDH1 R132C IC50 Range
Protocol: (§1) Assays were performed in a 384-well black plate. An aliquot of 250 nL of compound was incubated with 10 μL of 30 nM IDH1-R132H or 10 nM IDH1-R132C recombinant protein in assay buffer (50 mM Tris pH=7.5, 150 mM NaCl, 5 mM MgCl2, 0.1% (w/v) Bovine Serum Albumin, and 0.01% Triton X-100) in each well at 25° C. for 15 minutes. After the plate was centrifuged briefly, an aliquot of 10 μL of 2 mM α-ketoglutarate and 20 μM NADPH solution prepared in assay buffer was then added to each well and the reaction was maintained at 25° C. for 45 minutes. An aliquot of 10 μL of diaphorase solution (0.15 U/mL diaphorase and 30 μM Resazurin in assay buffer) was added to each well. […] The IC50 of a given compound was calculated by fitting the dose response curve of inhibition of NADPH consumption at a given concentration with the four parameter logistic equation.

[2] = tested on: HCT116 isogenic IDH1-R132H mutant cells; assay: Cellular 2-HG assay using HCT116 mutant IDH1 cells (R132H); format: cell-based; conditions: Homo sapiens, HCT-116; cellular 2-HG inhibition, 24 hours, RapidFire mass spectrometry; read-out: HCT116 IDH1 R132H IC50 Range
[3] = target: IDH1-R132H recombinant protein (Homo sapiens, UniProt O75874, R132H); assay: IDH1-R132H enzymatic assay (NADPH consumption, diaphorase/resazurin readout); format: biochemical; conditions: read-out: Enzyme IDH1 R132H IC50 Range
Protocol: as §1

[4] = tested on: HCT116 isogenic IDH1-R132C mutant cells; assay: Cellular 2-HG assay using HCT116 mutant IDH1 cells (R132C); format: cell-based; conditions: Homo sapiens, HCT-116; cellular 2-HG inhibition, 24 hours, RapidFire mass spectrometry; read-out: HCT116 IDH1 R132C IC50 Range

Chain of IDH1-R132H recombinant protein (O75874 whole entry R132H): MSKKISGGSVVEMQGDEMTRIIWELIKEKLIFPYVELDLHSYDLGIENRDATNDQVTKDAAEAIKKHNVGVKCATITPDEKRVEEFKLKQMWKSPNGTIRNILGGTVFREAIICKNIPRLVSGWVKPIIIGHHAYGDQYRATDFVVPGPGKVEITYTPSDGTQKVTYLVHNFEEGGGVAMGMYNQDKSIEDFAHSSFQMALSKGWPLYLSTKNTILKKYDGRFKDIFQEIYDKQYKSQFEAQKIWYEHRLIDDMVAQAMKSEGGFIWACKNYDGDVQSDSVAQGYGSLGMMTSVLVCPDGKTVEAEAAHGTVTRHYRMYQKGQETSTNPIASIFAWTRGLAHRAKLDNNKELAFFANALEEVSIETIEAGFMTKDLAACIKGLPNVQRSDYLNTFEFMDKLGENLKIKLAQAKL
Chain of IDH1-R132C recombinant protein (O75874 whole entry R132C): as the sequence (O75874 whole entry R132H) above, with H132C counted along it

SMILES	IC50 [1] [nM]	IC50 [2] [nM]	IC50 [3] [nM]	IC50 [4] [nM]
COc1cc(N[C@@H](C)c2cc3cc(Cl)ccc3[nH]c2=O)ccc1C#N [Compound I-2, 4-{[(1S)-1-(6-chloro-2-oxo-1,2-dihydroquinolin-3-yl)ethyl]amino}-2-methoxybenzonitrile]	100 to 1000	< 10	10 to 100	100 to 1000
COc1cc(NCc2cc3cc(Cl)c(OCCN4CCCC4)cc3[nH]c2=O)ccc1C#N [Compound I-85, 4-[({6-chloro-2-oxo-7-[2-(pyrrolidin-1-yl)ethoxy]-1,2-dihydroquinolin-3-yl}methyl)amino]-2-methoxybenzonitrile]	> 1000	–	100 to 1000	–
COc1cc(NCc2cc3cc(Cl)c(OCCN(C)C)cc3[nH]c2=O)ccc1C#N [Compound I-61, 4-[({6-chloro-7-[2-(dimethylamino)ethoxy]-2-oxo-1,2-dihydroquinolin-3-yl}methyl)amino]-2-methoxybenzonitrile]	> 1000	–	10 to 100	–
COc1cc(NCc2cc3ccc(C)cc3[nH]c2=O)ccc1-n1cnnn1 [Compound I-22, 3-({[3-methoxy-4-(1H-1,2,3,4-tetrazol-1-yl)phenyl]amino}methyl)-7-methyl-1,2-dihydroquinolin-2-one]	> 1000	–	100 to 1000	–
COc1cc(NCc2cc3cc(C)ccc3[nH]c2=O)ccc1-n1cnnn1 [Compound I-16, 3-({[3-methoxy-4-(1H-1,2,3,4-tetrazol-1-yl)phenyl]amino}methyl)-6-methyl-1,2-dihydroquinolin-2-one]	> 1000	–	100 to 1000	–
COc1cc(NCc2cc3cc(Cl)c(OCCCN4CCCCC4)cc3[nH]c2=O)ccc1C#N [Compound I-84, 4-[({6-chloro-2-oxo-7-[3-(piperidin-1-yl)propoxy]-1,2-dihydroquinolin-3-yl}methyl)amino]-2-methoxybenzonitrile]	> 1000	–	100 to 1000	–
COc1cc(NCc2cc3cc(Cl)c(OCCN4CCCC4=O)cc3[nH]c2=O)ccc1C#N [Compound I-86, 4-[({6-chloro-2-oxo-7-[2-(2-oxopyrrolidin-1-yl)ethoxy]-1,2-dihydroquinolin-3-yl}methyl)amino]-2-methoxybenzonitrile]	> 1000	–	10 to 100	–
COc1cc(NCc2cc3cc(Cl)c(OCc4ccncc4)cc3[nH]c2=O)ccc1C#N [Compound I-74, 4-({[6-chloro-2-oxo-7-(pyridin-4-ylmethoxy)-1,2-dihydroquinolin-3-yl]methyl}amino)-2-methoxybenzonitrile]	> 1000	–	100 to 1000	–
COc1cc(NCc2cc3cc(Cl)c(OCC(O)CN4CCOCC4)cc3[nH]c2=O)ccc1C#N (stereo not shown) [Compound I-59, 4-[({6-chloro-7-[2-hydroxy-3-(morpholin-4-yl)propoxy]-2-oxo-1,2-dihydroquinolin-3-yl}methyl)amino]-2-methoxybenzonitrile]	> 1000	–	100 to 1000	–
COc1cc(NCc2cc3cc(Cl)c(OCC(=O)N4CCOCC4)cc3[nH]c2=O)ccc1C#N [Compound I-69, 4-[({6-chloro-7-[2-(morpholin-4-yl)-2-oxoethoxy]-2-oxo-1,2-dihydroquinolin-3-yl}methyl)amino]-2-methoxybenzonitrile]	> 1000	–	10 to 100	–
COc1cc(NCc2cc3cc(Cl)cc(C)c3[nH]c2=O)ccc1C#N [Compound I-95, 4-{[(6-chloro-8-methyl-2-oxo-1,2-dihydroquinolin-3-yl)methyl]amino}-2-methoxybenzonitrile]	> 1000	–	100 to 1000	–
COc1cc(NCc2cc3cc(Cl)c(OCc4nc(C(N)=O)no4)cc3[nH]c2=O)ccc1C#N [Compound I-79, 5-{[(6-chloro-3-{[(4-cyano-3-methoxyphenyl)amino]methyl}-2-oxo-1,2-dihydroquinolin-7-yl)oxy]methyl}-1,2,4-oxadiazole-3-carboxamide]	100 to 1000	–	10 to 100	–
COc1cc(NCc2cc3cc(Cl)c(OCCN4CCCCC4)cc3[nH]c2=O)ccc1C#N [Compound I-87, 4-[({6-chloro-2-oxo-7-[2-(piperidin-1-yl)ethoxy]-1,2-dihydroquinolin-3-yl}methyl)amino]-2-methoxybenzonitrile]	> 1000	–	10 to 100	–
COc1cc(NCc2cc3cc(Cl)c(OCC4CCOCC4)cc3[nH]c2=O)ccc1C#N [Compound I-63, 4-({[6-chloro-7-(oxan-4-ylmethoxy)-2-oxo-1,2-dihydroquinolin-3-yl]methyl}amino)-2-methoxybenzonitrile]	> 1000	–	10 to 100	–
COc1cc(NCc2cc3cc(Cl)c(OCc4cnccn4)cc3[nH]c2=O)ccc1C#N [Compound I-76, 4-({[6-chloro-2-oxo-7-(pyrazin-2-ylmethoxy)-1,2-dihydroquinolin-3-yl]methyl}amino)-2-methoxybenzonitrile]	> 1000	–	10 to 100	–
COc1cc2[nH]c(=O)c(CNc3ccc(C#N)c(OC)c3)cc2cc1Cl [Compound I-21, 4-{[(6-chloro-7-methoxy-2-oxo-1,2-dihydroquinolin-3-yl)methyl]amino}-2-methoxybenzonitrile]	100 to 1000	–	100 to 1000	–
COc1cc(NCc2cc3ccc(O)cc3[nH]c2=O)ccc1C#N [Compound I-30, 4-{[(7-hydroxy-2-oxo-1,2-dihydroquinolin-3-yl)methyl]amino}-2-methoxybenzonitrile]	> 1000	–	100 to 1000	–
COc1cc(NCc2cc3cc(Cl)c(OCC(=O)N(C)C)cc3[nH]c2=O)ccc1C#N [Compound I-67, 2-[(6-chloro-3-{[(4-cyano-3-methoxyphenyl)amino]methyl}-2-oxo-1,2-dihydroquinolin-7-yl)oxy]-N,N-dimethylacetamide]	> 1000	–	10 to 100	–
COc1cc(NCc2cc3cc(Cl)c(OCC(N)=O)cc3[nH]c2=O)ccc1C#N [Compound I-68, 2-[(6-chloro-3-{[(4-cyano-3-methoxyphenyl)amino]methyl}-2-oxo-1,2-dihydroquinolin-7-yl)oxy]acetamide]	100 to 1000	–	10 to 100	–
COc1cc(NCc2cc3cc(Cl)c(OCCN4CCN(S(C)(=O)=O)CC4)cc3[nH]c2=O)ccc1C#N [Compound I-64, 4-[({6-chloro-7-[2-(4-methanesulfonylpiperazin-1-yl)ethoxy]-2-oxo-1,2-dihydroquinolin-3-yl}methyl)amino]-2-methoxybenzonitrile]	100 to 1000	–	10 to 100	–
Cc1nnnn1-c1ccc(NCc2cc3cc(Cl)ccc3[nH]c2=O)cc1 [Compound I-38, 6-chloro-3-({[4-(5-methyl-1H-1,2,3,4-tetrazol-1-yl)phenyl]amino}methyl)-1,2-dihydroquinolin-2-one]	> 1000	–	100 to 1000	–
COc1cc(NCc2cc3cc(Cl)c(OCc4cc(C)n(C)n4)cc3[nH]c2=O)ccc1C#N [Compound I-70, 4-[({6-chloro-7-[(1,5-dimethyl-1H-pyrazol-3-yl)methoxy]-2-oxo-1,2-dihydroquinolin-3-yl}methyl)amino]-2-methoxybenzonitrile]	100 to 1000	–	10 to 100	–
COc1cc(NC(C)c2cc3cc(Cl)c(OCc4ccccn4)cc3[nH]c2=O)ccc1C#N (stereo not shown) [Compound I-5, 4-({1-[6-chloro-2-oxo-7-(pyridin-2-ylmethoxy)-1,2-dihydroquinolin-3-yl]ethyl}amino)-2-methoxybenzonitrile]	100 to 1000	–	10 to 100	–
COc1cc(NCc2cc3cc(Cl)c(OC[C@@H]4CCCN4C)cc3[nH]c2=O)ccc1C#N [Compound I-94, 4-{[(6-chloro-7-{[(2S)-1-methylpyrrolidin-2-yl]methoxy}-2-oxo-1,2-dihydroquinolin-3-yl)methyl]amino}-2-methoxybenzonitrile]	> 1000	–	10 to 100	–
COc1cc(NCc2cc3cc(C(F)(F)F)ccc3[nH]c2=O)ccc1C#N [Compound I-25, 2-methoxy-4-({[2-oxo-6-(trifluoromethyl)-1,2-dihydroquinolin-3-yl]methyl}amino)benzonitrile]	> 1000	–	10 to 100	–
COc1cc(NCc2cc3cc(Cl)c(OCCN4CCN(C)CC4)cc3[nH]c2=O)ccc1C#N [Compound I-88, 4-[({6-chloro-7-[2-(4-methylpiperazin-1-yl)ethoxy]-2-oxo-1,2-dihydroquinolin-3-yl}methyl)amino]-2-methoxybenzonitrile]	> 1000	–	10 to 100	–
COc1cc(NCc2cc3cc(Cl)c(OC[C@H]4CCOC4)cc3[nH]c2=O)ccc1C#N [Compound I-65, 4-[({6-chloro-2-oxo-7-[(3S)-oxolan-3-ylmethoxy]-1,2-dihydroquinolin-3-yl}methyl)amino]-2-methoxybenzonitrile]	> 1000	–	10 to 100	–
COc1cc(NCc2cc3cc(Cl)c(OCCn4ccnc4)cc3[nH]c2=O)ccc1C#N [Compound I-89, 4-[({6-chloro-7-[2-(1H-imidazol-1-yl)ethoxy]-2-oxo-1,2-dihydroquinolin-3-yl}methyl)amino]-2-methoxybenzonitrile]	> 1000	–	10 to 100	–
